Assay results reported in patent US20130137111A1, “DETECTION METHOD OF NOVEL RET FUSION” (Astellas Pharma Inc., priority 2010, published 2013).

Legend:
[1] = system: FLAG-KIF5B-RETv1S/NIH3T3 cells; test: Anchorage-independent cell growth inhibition in spheroid plate (CellTiter-Glo); format: cell-based; settings: Mus musculus, 120 h, final concentration 1.1 μM, 96-well spheroid plate, cultured 5 days, DMSO = 0%, medium only = 100%, read-out: growth inhibition rate (%)
Procedure: The measurement (colony method or the like) of anchorage-independent cell growth is known to be a system for examining the anticancer action (pharmacological effect) of a compound (“Clinical Oncology” 2nd edition, Japanese Journal of Cancer & Chemotherapy). As a method that measures the growth of non-adherent cells unlike the colony method, there is a method using a spheroid plate as described above.
In addition, a plate to which only a medium was added was prepared as a […]. […] As a […], DMSO as solvent of the compound was added thereto at the same concentration (0.1%) as the compound. Thereafter, the cells were cultured for 5 days at 37° C. in the presence of 5% CO2, and the cell counting reagent (CellTiter-Gio™ Luminescent Cell Viability Assay; Promega Corporation) was added thereto, followed by stirring for 20 minutes. Thereafter, the cells were measured using a luminescence measurement instrument (Envision; PerkinElmer Inc.). The values of positive control and negative control were regarded as 100% inhibition value and 0% inhibition value respectively to calculate the growth inhibition rate (%) of the respective compounds.

[2] = target: T1, KIF5B-RET fusion polypeptide v1S (Homo sapiens, UniProt P07949); test: cell-based; settings: NIH3T3, read-out: phosphorylation inhibition rate
T1 sequence (P07949 with tags, fused parts or gaps isoform P07949-2): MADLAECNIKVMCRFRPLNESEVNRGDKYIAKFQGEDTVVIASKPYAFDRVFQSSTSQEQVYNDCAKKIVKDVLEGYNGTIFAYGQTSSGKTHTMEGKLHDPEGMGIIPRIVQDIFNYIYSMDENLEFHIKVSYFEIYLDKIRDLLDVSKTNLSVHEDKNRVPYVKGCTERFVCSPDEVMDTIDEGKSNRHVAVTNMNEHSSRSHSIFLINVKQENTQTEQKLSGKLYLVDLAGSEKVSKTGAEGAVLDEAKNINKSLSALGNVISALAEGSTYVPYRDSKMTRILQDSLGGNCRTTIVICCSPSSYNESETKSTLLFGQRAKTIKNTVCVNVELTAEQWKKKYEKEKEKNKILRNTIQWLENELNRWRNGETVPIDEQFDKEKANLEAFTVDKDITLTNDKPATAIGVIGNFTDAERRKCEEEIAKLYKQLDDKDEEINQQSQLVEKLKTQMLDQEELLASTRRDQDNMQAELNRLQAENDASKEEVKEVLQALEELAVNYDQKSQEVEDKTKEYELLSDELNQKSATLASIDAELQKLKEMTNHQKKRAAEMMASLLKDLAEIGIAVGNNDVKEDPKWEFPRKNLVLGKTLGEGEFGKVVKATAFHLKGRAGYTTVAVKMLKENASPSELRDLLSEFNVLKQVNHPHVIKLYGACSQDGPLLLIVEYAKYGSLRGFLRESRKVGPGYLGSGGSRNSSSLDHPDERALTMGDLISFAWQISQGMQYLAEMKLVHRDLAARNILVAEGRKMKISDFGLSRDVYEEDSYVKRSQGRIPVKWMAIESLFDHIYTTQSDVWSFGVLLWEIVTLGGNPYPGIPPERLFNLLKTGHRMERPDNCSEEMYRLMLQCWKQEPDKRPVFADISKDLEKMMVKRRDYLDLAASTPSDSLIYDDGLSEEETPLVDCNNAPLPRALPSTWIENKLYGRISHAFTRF

inhibition at 1 µM [2] | SMILES | inhibition at 1.1 µM [1]
57% | CCN(CC)CCNC(=O)c1c(C)[nH]c(/C=C2\C(=O)Nc3ccc(F)cc32)c1C [Sunitinib] | 77%
– | COc1cc2c(Nc3ccc(Br)cc3F)ncnc2cc1OCC1CCN(C)CC1 [Vandetanib] | 83%
– | CNC(=O)c1cc(Oc2ccc(NC(=O)Nc3ccc(Cl)c(C(F)(F)F)c3)cc2)ccn1 [Sorafenib] | 96%
